We go through 5 molecules from US10702607B2, “Abuse-deterrent pharmaceutical compositions” (priority 2016, dated 2020).

Series [1] concerns laccase. The series is described as follows: Laccase mediator system (LMS) with oxycodone: oxygen concentration measurement. In kind it is biochemical. The following applies: mediator 2 mM, 10 units laccase ml^-1, 1000 mgL^-1 oxycodone. How it is done: During the reaction oxygen acts as electron acceptor and is reduced to water by laccases while the mediators are oxidized. The concentration of oxygen was measured as described above. Oxygen is consumed until the mediator is fully oxidized. […] The second step of the reaction is initiated by addition of the target substrate, which is consequently oxidized by the mediators.
In the present experiments the final reaction mixtures contained 0.2 to 6 mM mediator, 1-10 units of laccase per ml and 100-3000 mg L^−1 opioid.
The different mediators were used at concentrations of 2 mM with 10 units laccase ml^−1 and 1000 mgL^−1 oxycodone.

The subject of series [2] is laccase. The series can be described thus: Laccase mediator system (LMS) with oxycodone: HPLC-MS/TOF measurement. The following applies: mediator 2 mM.
The target of another series is T1, pepsin (Sus scrofa, UniProt P00791).
T1 construct: purchased Sigma-Aldrich (US) P7000
The series can be described thus: Pepsin digestion assay in simulated gastric fluid (SGF) with SDS-PAGE analysis. In kind it is in vitro ADME. The settings on record: 37° C. How it is done: SGF contains 0.084 M HCl, 0.035 M NaCl, 4000 U of pepsin per reaction mixture and has a pH level of 1.2 according to the United States Pharmacopeia (1995). A ratio of 10000 Units of pepsin activity to 1 mg of test protein was used throughout the assay, which is based on an evaluation of the average activity of pepsin recommended in the United States Pharmacopeia (24th edition, 2000) with some modifications. Pepsin (ref. # P7000) was purchased from Sigma-Aldrich (US). All proteins that were used were dissolved in 50 mM Tris-HCl (pH 9.5) at a concentration of 5 mg mL^−1. The reaction mixture contained 1.52 mL of SGF preheated to 37° C. before the addition of 0.08 mL of protein solution (Thomas et al., 2004). The mixture was placed into a thermomixer at 37° C. and was shaken at 400 rpm. For denaturating SDS-polyacrylamide gel electrophoresis (SDS-PAGE) analysis samples of 160 μl were removed at 0 minutes, 0.5 minutes, and 15 minutes after initiation.
SDS-PAGE was performed to analyze and visually inspect stained protein bands whether the protein band is still intact or fragmented after the digestion assay. […]
Each 160 μl of the digestion samples was quenched by […] of 200 mM NaHCO3 as neutralization step and 56 μl 4× Laemmli (Laemmli 1970) buffer for electrophoresis. Samples were immediately heated up to 99° C. for 10 minutes and analyzed directly or stored at −20° C. […]

T1 sequence (P00791 60-385): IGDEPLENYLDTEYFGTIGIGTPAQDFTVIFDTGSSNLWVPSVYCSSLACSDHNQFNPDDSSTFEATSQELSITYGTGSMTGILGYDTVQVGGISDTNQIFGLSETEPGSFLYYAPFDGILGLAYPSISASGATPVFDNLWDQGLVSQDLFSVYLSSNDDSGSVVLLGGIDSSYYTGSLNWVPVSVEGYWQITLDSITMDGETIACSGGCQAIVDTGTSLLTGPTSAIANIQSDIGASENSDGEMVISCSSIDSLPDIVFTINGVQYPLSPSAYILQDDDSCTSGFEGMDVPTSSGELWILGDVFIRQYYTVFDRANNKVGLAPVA

As to `CCOc1cc(C=O)ccc1O` [ethylvanillin], the “oxygen concentration after the addition of oxycodone (oxidation of oxycodone)” value (“oxygen concentration after the addition” below) in the series on laccase [1] was “drop in oxygen concentration”.

Turning to `O=C(O)c1cc(O)c(O)c(O)c1` [gallic acid], the “effect of mediator on oxycodone (MS-TOF analysis)” value in the series on laccase [2] is “no apparent effect”. In the series with laccase [1], the “oxygen concentration after the addition” value is given as “no apparent effect”.

On to `COc1cc(C(=O)O)cc(OC)c1O` [syringic acid], for which the “oxygen concentration after the addition” value in the series with laccase [1] is reported as “drop in oxygen concentration”. For `COc1cc(C=O)ccc1O` [vanillin], in the series on laccase [1], the “oxygen concentration after the addition” value was “drop in oxygen concentration”. As to “HRP: horseradish peroxidase (EC 1.11.1.7)”, the proteolytic degradation entry with pepsin (SGF pH 1.2, pepsin 10000 Units per mg test protein, samples at 0, 0.5, 15 minutes, SDS-PAGE) was “very susceptible to proteolytic degradation”. Moreover, the “protein band on SDS-PAGE after pepsin digestion” value with pepsin (SGF pH 1.2, pepsin) is given as “vanished within seconds”.
